Measured values taken from US20140045189A1 (priority 2009, published 2014).
Like-named read-outs stand apart in the source and are kept apart here.

Experiments:
Listeria monocytogenes = conditions: 30 min, TSA-Y, control 2.78×10^9 CFU/ml
Description: (§1) Listeria monocytogenes EGDe (1/2a, internal number 2964) is used as a model organism for Gram-positive bacteria and as a DNA quantification standard for real-time PCR. Salmonella enterica serovar Typhimurium (NCTC 12023) is used as a model organism for Gram-negative bacteria and as a DNA quantification standard for real-time PCR. The bacteria are maintained at −80° C. using MicroBank™ technology (Pro-Lab Diagnostics, Richmont Hill, Canada) and are part of the collection of bacterial strains at the Institute of Milk Hygiene, Milk Technology and Food Science, University of Veterinary Medicine, Vienna, Austria. All bacterial strains are grown overnight in tryptone soya broth with 0.6% (w/v) yeast extract (TSB-Y; Oxoid, Hampshire, United Kingdom) at the respective optimal growth temperatures (37° C., L. monocytogenes and 42° C., S. Typhimurium).
(§2) The influence of different MgCl2 concentrations on the viability of Listeria monocytogenes and Salmonella Typhimurium is investigated. The target organisms are incubated for 30 min with 3 different concentrations of MgCl2 (1 M, 2 M and 3 M) and at 3 different temperatures (35° C., 38° C. and 45° C.) and the CFUs on TSA-Y agar plates after the treatment are compared with the control sample.

Salmonella Typhimurium = conditions: 30 min, TSA-Y, control […]10^9 CFU/ml
Description: as §1, §2

[Cl-].[Cl-].[Mg+2] [MgCl2, magnesium chloride]
CFU/ml of L. monocytogenes after treatment (Listeria monocytogenes; 1 M MgCl2, 35° C.): 3.86×10^9 CFU/ml | CFU/ml of L. monocytogenes after treatment (Listeria monocytogenes; 1 M MgCl2, 38° C.): 4.06×10^9 CFU/ml | CFU/ml of L. monocytogenes after treatment (Listeria monocytogenes; 1 M MgCl2, 45° C.): 4.39×10^9 CFU/ml | CFU/ml of L. monocytogenes after treatment (Listeria monocytogenes; 2 M MgCl2, 35° C.): 3.10×10^9 CFU/ml | CFU/ml of L. monocytogenes after treatment (Listeria monocytogenes; 2 M MgCl2, 38° C.): 3.64×10^9 CFU/ml | CFU/ml of L. monocytogenes after treatment (Listeria monocytogenes; 2 M MgCl2, 45° C.): 1.68×10^9 CFU/ml | CFU/ml of L. monocytogenes after treatment (Listeria monocytogenes; 3 M MgCl2, 35° C.): 1.76×10^9 CFU/ml | CFU/ml of L. monocytogenes after treatment (Listeria monocytogenes; 3 M MgCl2, 38° C.): 8.5×10^8 CFU/ml | CFU/ml of L. monocytogenes after treatment (Listeria monocytogenes; 3 M MgCl2, 45° C.): 1.5×10^8 CFU/ml | CFU/ml of S. Typhimurium after treatment (Salmonella Typhimurium; 1 M MgCl2, 35° C.): 1.15×10^9 CFU/ml | CFU/ml of S. Typhimurium after treatment (Salmonella Typhimurium; 1 M MgCl2, 38° C.): 8.33×10^8 CFU/ml | CFU/ml of S. Typhimurium after treatment (Salmonella Typhimurium; 1 M MgCl2, 45° C.): 4.1×10^8 CFU/ml | CFU/ml of S. Typhimurium after treatment (Salmonella Typhimurium; 2 M MgCl2, 35° C.): 2.3×10^8 CFU/ml | CFU/ml of S. Typhimurium after treatment (Salmonella Typhimurium; 2 M MgCl2, 38° C.): 1.35×10^8 CFU/ml | CFU/ml of S. Typhimurium after treatment (Salmonella Typhimurium; 3 M MgCl2, 35° C.): 5.75×10^7 CFU/ml | CFU/ml of S. Typhimurium after treatment (Salmonella Typhimurium; 3 M MgCl2, 38° C.): 2.0×10^7 CFU/ml
